Source: ChEMBL document CHEMBL5113406, “Structure-based discovery and development of novel O-GlcNAcase inhibitors for the treatment of Alzheimer's disease” (Eur J Med Chem, 2022)
Activity calls are given as the source filed them. No cut-off for these calls is given here.

Assays:
[1] = target: T1, Hexosaminidase D (Homo sapiens) (UniProt Q8WVB3); assay: Inhibition of human recombinant beta-hexosaminidase at 10 uM pretreated with compound followed by 4-nitrophenyl Nacetyl-beta-D-glucosaminide substrate addition by fluorometer
T1 sequence (whole entry): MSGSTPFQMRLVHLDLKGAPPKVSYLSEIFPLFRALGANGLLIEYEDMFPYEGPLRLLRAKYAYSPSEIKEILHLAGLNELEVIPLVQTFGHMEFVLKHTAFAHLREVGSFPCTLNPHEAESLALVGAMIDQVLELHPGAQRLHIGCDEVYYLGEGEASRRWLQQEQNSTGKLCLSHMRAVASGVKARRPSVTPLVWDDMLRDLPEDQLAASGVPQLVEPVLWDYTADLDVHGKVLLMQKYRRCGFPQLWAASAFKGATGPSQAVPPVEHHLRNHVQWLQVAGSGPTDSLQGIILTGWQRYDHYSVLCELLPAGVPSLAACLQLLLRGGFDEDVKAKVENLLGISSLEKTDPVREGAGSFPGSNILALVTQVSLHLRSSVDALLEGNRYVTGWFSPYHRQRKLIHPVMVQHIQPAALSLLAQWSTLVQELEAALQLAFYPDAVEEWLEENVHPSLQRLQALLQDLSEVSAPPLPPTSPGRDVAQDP

[2] = Cytotoxicity against mouse HT-22 cells assessed as cell viability at 10 uM after 18 hrs by MTT assay; assay type: toxicity, cell-based; conditions: read-out: Activity
Protein O-GlcNAcase = target: T2, Protein O-GlcNAcase (Homo sapiens, UniProt O60502); assay: Inhibition of human recombinant OGA pretreated for 20 mins followed by 4-Methylumbelliferyl N-acetyl-(3-D-glucosaminide substrate addition by fluorometer
T2 sequence (O60502 whole entry): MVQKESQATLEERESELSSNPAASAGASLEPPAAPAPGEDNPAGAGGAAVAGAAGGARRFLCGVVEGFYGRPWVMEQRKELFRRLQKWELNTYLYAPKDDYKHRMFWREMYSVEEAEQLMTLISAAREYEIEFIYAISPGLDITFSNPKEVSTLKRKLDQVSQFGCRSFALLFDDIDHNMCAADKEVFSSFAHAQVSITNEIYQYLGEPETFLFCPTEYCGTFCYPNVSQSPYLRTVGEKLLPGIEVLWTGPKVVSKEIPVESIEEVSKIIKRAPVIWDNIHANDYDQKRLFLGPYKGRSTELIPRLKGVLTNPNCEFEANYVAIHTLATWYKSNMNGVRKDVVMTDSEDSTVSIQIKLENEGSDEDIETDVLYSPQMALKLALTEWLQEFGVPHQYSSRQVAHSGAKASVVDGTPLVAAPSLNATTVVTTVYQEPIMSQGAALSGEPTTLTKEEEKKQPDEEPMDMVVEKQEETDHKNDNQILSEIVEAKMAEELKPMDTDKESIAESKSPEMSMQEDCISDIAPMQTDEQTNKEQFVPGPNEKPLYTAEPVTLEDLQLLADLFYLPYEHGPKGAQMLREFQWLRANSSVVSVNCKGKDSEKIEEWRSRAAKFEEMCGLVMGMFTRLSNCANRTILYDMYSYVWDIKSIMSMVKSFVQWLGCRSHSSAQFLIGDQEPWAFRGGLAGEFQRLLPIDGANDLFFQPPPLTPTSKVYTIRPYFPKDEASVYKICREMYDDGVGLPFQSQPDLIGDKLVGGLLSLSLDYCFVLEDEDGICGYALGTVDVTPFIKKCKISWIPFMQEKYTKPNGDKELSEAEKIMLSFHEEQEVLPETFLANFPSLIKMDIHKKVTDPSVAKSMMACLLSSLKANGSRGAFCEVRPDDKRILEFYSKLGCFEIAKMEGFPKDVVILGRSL

[3] = Tmax in ICR mouse plasma at 20 mg/kg, ip after 24 hrs by LC-MS/MS analysis; assay type: ADME, organism-based
[4] = Cmax in ICR mouse plasma at 20 mg/kg, ip after 24 hrs by LC-MS/MS analysis; assay type: ADME, organism-based; set-up: dose 20 mg/kg, time 24 hrs, route ip
[5] = Half life in ICR mouse plasma at 20 mg/kg, ip after 24 hrs by LC-MS/MS analysis; assay type: ADME, organism-based
[6] = AUCt in ICR mouse plasma at 20 mg/kg, ip after 24 hrs by LC-MS/MS analysis; assay type: ADME, organism-based; set-up: time 24 hrs, dose 20 mg/kg, route ip
[7] = AUCinfinity in ICR mouse plasma at 20 mg/kg, ip after 24 hrs by LC-MS/MS analysis; assay type: ADME, organism-based; set-up: time 24 hrs, dose 20 mg/kg, route ip
[8] = AUClast in ICR mouse plasma at 20 mg/kg, ip after 24 hrs by LC-MS/MS analysis; assay type: ADME, organism-based; set-up: dose 20 mg/kg, time 24 hrs, route ip
[9] = AUClast in ICR mouse brain at 20 mg/kg, ip after 24 hrs by LC-MS/MS analysis; assay type: ADME, organism-based; set-up: time 24 hrs, dose 20 mg/kg, route ip
[10] = Ratio of drug level in ICR mouse brain to plasma at 20 mg/kg, ip after 24 hrs by LC-MS/MS analysis; assay type: ADME, organism-based; conditions: brain and plasma, read-out: BPR
Mus musculus [11] = assay: In vivo inhibition of OGA in amyloid-beta-induced ICR mouse assessed as decrease in 4-MUF level at 2 to 20 mg/kg, ip for 3 days by fluorescence analysis; assay type: functional, organism-based; conditions: dose 2-20 mg/kg, time 3.0 day
Mus musculus [12] = assay: Neuroprotective activity against amyloid beta (1 to 42)-induced cognitive impairement in ICR mouse assessed as spontaneous alteration at 20 mg/kg, ip for 3 days by Y-maze test; assay type: functional, organism-based; conditions: time 3.0 day
Brain [13] = assay: Anti-alzheimer activity in mouse model assessed as decrease in amyloid beta level in brain at 2 mg/kg, ip for 3 days by ELISA relative to control; assay type: functional; conditions: 72 h, time 3 day
Brain [14] = assay: Anti-alzheimer activity in mouse model assessed as decrease in amyloid beta level in brain at 20 mg/kg, ip for 3 days by ELISA relative to control; assay type: functional; conditions: 72 h, time 3 day
[15] = AUClast in ICR mouse plasma at 50 mg/kg, ip after 24 hrs by LC-MS/MS analysis; assay type: ADME, organism-based; set-up: dose 50 mg/kg, time 24 hrs, route ip
[16] = AUClast in ICR mouse brain at 50 mg/kg, ip after 24 hrs by LC-MS/MS analysis; assay type: ADME, organism-based; set-up: dose 50 mg/kg, time 24 hrs, route ip
[17] = Ratio of drug level in ICR mouse brain to plasma at 50 mg/kg, ip after 24 hrs by LC-MS/MS analysis; assay type: ADME, organism-based; conditions: brain and plasma, read-out: BPR
Mus musculus [18] = assay: Neuroprotective activity against amyloid beta (1 to 42)-induced cognitive impairement in ICR mouse assessed as […] spontaneous alteration at 50 mg/kg, ip for 3 days by Y-maze test; assay type: functional, organism-based; conditions: time 3.0 day
Brain [19] = assay: Anti-alzheimer activity in mouse model assessed as decrease in amyloid beta level in brain at 50 mg/kg, ip for 3 days by ELISA relative to control; assay type: functional; conditions: 72 h, time 3 day
Mus musculus [20] = species on record: Mus musculus; conditions: ICR, dose 50.0 mg/kg, route ip, time 3.0 day

Row | inhibition [1] [%] | IC50 (Protein O-GlcNAcase) [nM] | Compound | viability at 18 h, 10 µM [2] [%] | further results
1 | 101 | – | CC(=O)Nc1ncc(CN2CCN(CC(=O)Nc3ccc(Cc4ccccc4)cc3)CC2)s1 | 140 | –
2 | – | 450 | CC(=O)Nc1ncc(CN2CCCC(C(=O)Nc3ccccc3)C2)s1 (centres undefined) | – | –
3 | 89.6 | – | COc1ccc(CNC(=O)C=C2CCN(Cc3cnc(NC(C)=O)s3)CC2)cc1 | 109 | –
4 | 103 | – | CC(=O)Nc1ncc(CN2CCN(CC(=O)Nc3ccccc3)CC2C)s1 (centres undefined) | 98.6 | –
5 | 92.4 | – | CC(=O)Nc1ncc(CN2CCN(CC(=O)Nc3ccc(Cl)cc3)CC2C)s1 (centres undefined) | 111 | Tmax [3]: 21.6 min; Cmax [4]: 3200 ng/mL; half-life [5]: 91.8 min; AUC(0-t) at 24 h [6]: 4980 ng·h/mL; AUC(0-inf) [7]: 5210 ng·h/mL; AUC(0-t) at 24 h [8]: 2960 ng·h/mL; AUC(0-t) at 24 h [9]: 590 ng·h/mL; Kp at 24 h [10]: 0.2; inhibition (Mus musculus [11]): Active; Activity (Mus musculus [12]): Active; inhibition in vivo at 2 mg/kg (Brain [13]): 42%; inhibition in vivo at 20 mg/kg (Brain [14]): 71.8%
6 | – | 160 | CC(=O)Nc1ncc(CN2CCC(C(=O)Nc3ccc(F)cc3)CC2)s1 | – | –
7 | 7.6 | – | CC(=O)N[C@H]1/C(=N\OC(=O)Nc2ccccc2)O[C@H](CO)[C@@H](O)[C@@H]1O | 102 | –
8 | 73.5 | – | CC(=O)Nc1ncc(CN2CCN(CC(=O)Nc3ccc(N4CCN(C(C)=O)CC4)cc3)CC2C)s1 (centres undefined) | 94.4 | –
9 | – | 1400 | CC(=O)Nc1ncc(CN2CCN(CC(=O)Nc3ccccn3)CC2)s1 | – | –
10 | 91.6 | – | CCNC1=N[C@@H]2[C@@H](O)[C@H](O)[C@@H](CO)O[C@@H]2S1 | 95.9 | AUC(0-t) at 24 h [15]: 10000 ng·h/mL; AUC(0-t) at 24 h [16]: 590 ng·h/mL; Kp at 24 h [17]: 0.07; Activity (Mus musculus [18]): Active; inhibition in vivo at 50 mg/kg (Brain [19]): 62.8%; inhibition (Mus musculus [20]): Active
11 | 101 | – | CC(=O)Nc1ncc(CN2CCN(CC(=O)NC3CCCCC3)CC2C)s1 (centres undefined) | 123 | –
12 | – | 300 | CC(=O)Nc1ncc(CN2CCC(C(=O)Nc3ccc(C)cc3)CC2)s1 | – | –
13 | 92.5 | – | CC(=O)Nc1ncc(CN2CCCC(C(=O)Nc3ccc(F)cc3)C2)s1 (centres undefined) | 120 | –
14 | – | 230 | CC(=O)Nc1ncc(CN2CCCC(C(=O)NC3CCCCC3)C2)s1 (centres undefined) | – | –
15 | – | 280 | CC(=O)Nc1ncc(CN2CCC(=CC(=O)NC3CCCCC3)CC2)s1 | – | –
16 | 106 | – | CC(=O)Nc1ncc(CN2CCN(CC(=O)Nc3ccc(Cc4ccccc4)cc3)CC2C)s1 (centres undefined) | 136 | –
